The source of these data is patent US20130309768A1, “METHOD FOR CULTURING HUMAN PLURIPOTENT STEM CELLS” (NATIONAL INSTITUTE OF BIOMEDICAL INNOVATION, priority 2011, published 2013).

No end group written: not given here. *: point of attachment. Myristoyl = CCCCCCCCCCCCCC(=O)*

One experiment relates to human ES cells. To be noted: cited from earlier work.
Experiment [1] has as its system human iPS cell line Tic (JCRB1331). Briefly: Culture with protein kinase C peptide inhibitor, alkaline phosphatase staining. The class given is cell-based. To be noted: fourth day, FIG. 9. How it is done: Media comprising the activin-containing supplement+hESF-grow medium or the activin-free supplement+hESF-grow medium with fibronectin coating described in Example 3 and 0, 1, 2.5, 5, or 10 μM each of myristoylated protein kinase C peptide inhibitor (Myr. […]) (from Promega Corporation) added thereto were prepared, and used as first media containing a protein kinase C inhibitor and second media containing a protein kinase C inhibitor.
Human iPS cell line Tic (JCRB1331) was dispersed in the first medium containing a protein kinase C inhibitor and culturing was started. 60 hours after starting the culturing of the cell line Tic, a medium change into the second medium containing a protein kinase C inhibitor was conducted. Twice of medium changes were further conducted every 24 hours. On the fourth day after starting the culturing, the cells were fixed with 4.5 mM citric acid, 2.25 mM sodium citrate, 3 mM sodium chloride, 65% methanol and 4% paraformaldehyde for five minutes. Alkaline phosphatase staining was conducted with FastRed substrate kit (from Sigma Chemical Co.) according to the guidance of the manufacturer.

Experiment [2] deals with ERK (extracellular signal-regulated kinases). The settings on record: addition of activin; cited from earlier work.
The subject of experiment [3] is human ES cell line KhES-1. Briefly: Cell adhesion to ECM-coated microplates (crystal violet, absorbance 595 nm). To be noted: coating 0.01-10 μg/cm^2, hESF9 medium, two days culture; FIG. 1(a). The experiment is classed as cell-based. How it is done: (§1) The inventors studied on the substitution of ECMs such as collagen I, gelatin, laminin, fibronectin, and the like, which are recently used as a cell support in place of feeder cells, from animal-derived materials to animal product-free ingredients. Studies were conducted with human ES cell line KhES-1 (Laboratory of embryonic stem Cell research Center, Institute for Frontier Medical Sciences, Kyoto University), and human iPS cell line Tic (JCRB1331) (JSCB cell bank, National Institute of Biomedical Innovation); and the embryonal cancer cell line PA-1 (JCRB9061) (JSCB cell bank, National institute of Biomedical Innovation) was used as a comparative example.
(§2) Using 96 well microplates (from Corning Incorporated), each of collagen I (from Nitta Gelatin Inc.), gelatin (from Sigma Chemical Co.), laminin (from Sigma Chemical Co.), and fibronectin (from Sigma Chemical Co.) was treated at 37° C. for 3 hours, with avoiding being dried, to coat the microplates with each at 0.01, 0.05, 0.1, 0.5, 1, 5 and 10 μg/cm^2. The aforementioned hESF9 medium was added, and then human ES cell line KhES-1 and human iPS cell line Tic (JCRB1331), and embryonal cancer cell line PA-1 (JCRB9061) were seeded at […], after counting their cell numbers. After culturing the cells for two days (or culturing the embryonal cancer cell line PA-1 (JCRB9061) for one hour), the cells were fixed and nuclei of adhered cells were stained with 0.4% crystal violet (from Sigma Chemical Co.) dissolved in methanol for 30 minutes. The microplates were washed and then dried. The cells were lysed with 0.1 M sodium citrate dissolved in 50% methanol, and absorbance at 595 nm was measured with a microplate reader (model 550, from Bio-Rad Laboratories, Inc.).

Experiment [4] deals with human iPS cell line Tic (JCRB1331). Described as above. To be noted: coating 0.01-10 μg/cm^2, hESF9 medium, two days culture; FIG. 1(b). The class given is cell-based. How it is done:
as §1, §2

Experiment [5] has as its system embryonal cancer cell line PA-1 (JCRB9061). Briefly: Cell adhesion to ECM-coated microplates (comparative example). The experiment is classed as cell-based. The settings on record: hESF9 medium, one hour culture; FIG. 1(c). How it is done:
as §1, §2
Embryonal cancer cell line PA-1 (JCRB9061) was studied on the adhesion ability to the various ECNs described above.

A further experiment deals with cell line H9 (WA09). Briefly: Culture with fibronectin added to the medium, cell appearance. The experiment is classed as cell-based, human. To be noted: 0, 20, 40, 80, 160, 320 μg/well tested; 9.6 cm^2 well, 3 mL medium; FIG. 8. As to the method: In a 6 well plate (from Becton, Dickinson and Company), first media containing fibronectin were prepared by adding 10 μg/mL recombinant human insulin, 5 μg/mL recombinant human transferrin (apo), 10 μM 2-mercaptoethanol, 10 μM 2-ethanolamine, 20 nM sodium selenite, 9.4 μg/mL oleic acid complexed with 1 mg/mL recombinant human albumin, and 2 ng/mL recombinant human activin to the hESF-grow medium, and further adding 0, 20, 40, 80, 160, or 320 μg/well of bovine fibronectin to each well.
In a 6 well plate (from Becton, Dickinson and Company), second media containing fibronectin were prepared by adding 5 μg/mL recombinant human transferrin (apo), 10 μM 2-mercaptoethanol, 10 μM 2-ethanolamine, 20 nM sodium selenate and 9.4 μg/mL oleic acid complexed with 1 mg/mL recombinant albumin to the hESF-grow medium, and further adding 0, 20, 40, 80, 160, or 320 μg/well of bovine fibronectin to each well.
The cell line H9 (WA09) was cultured similarly to the culturing on fibronectin coating described above, except that the first medium and the second medium described in the above section on fibronectin coating were replaced with the first media containing fibronectin and the second media containing fibronectin, and cells were cultured at varying concentrations of fibronectin in respective wells. The area of 1 well in the used plate was 9.6 cm^2, and 3 mL each of the medium was added.

In the next experiment the test system is murine ES cells. To be noted: serum-free medium; cited from earlier work.
The next experiment concerns pluripotent stem cells. In words: Cytokeratin expression of cells cultured on laminin. The class given is cell-based, human.

Take `O=S(=O)(O)CCN1CCN(CCO)CC1` [HEPES]: the “effect on the maintenance of human ES cells” value in the experiment on human ES cells (added into serum-free medium) was “very adverse effect”.

Take “Myr. RFARKGALRQKNV (Myristoyl-RFARKGALRQKNV)”: in experiment [1] (1 to 2.5 μM in medium), the proliferation entry is recorded as “increase in proliferation”. The “suppression of differentiation compared to no inhibitor” value in experiment [1] (1 to 5 μM in medium) is “further suppression of differentiation”.

As for activin, in the experiment with human ES cells (addition of activin), the “differentiation induction into the nerve or mesendoderm” value is “promotes differentiation induction”. The ERK activation entry in [2] was “activates ERK”.

Consider collagen, for which the adhesion ability entry in experiment [3] was “weak adhesion ability”; in experiment [4], “weak adhesion ability”; in [5], “strongest adhesion ability”. Moreover, the “coating concentration at which adhesion ability was strongest” value in experiment [5] is on record as “about 10 μg/cm^2”.

Regarding fibronectin, the adhesion ability entry in [3] and in [4] was “strongest adhesion ability” each time. Moreover, the “amount of fibronectin at which the undifferentiated state was best maintained” value in the experiment with cell line H9 (WA09) is 80 μg/well. The “effect on undifferentiated state / differentiation” value in the experiment with murine ES cells is “act to promote the differentiation”.

gelatin: the adhesion ability entry in experiment [3] is given as “weak adhesion ability”; in [4], “weak adhesion ability”; in experiment [5] it was “strongest adhesion ability”. In experiment [5], the “coating concentration at which adhesion ability was strongest” value was “about 10 μg/cm^2”.

As to heparin, in the experiment with human ES cells (added in the absence of FGF-2), the “proliferation of ES cells” value is “promotes the proliferation”.

Regarding laminin, the adhesion ability result in experiment [3] and in [4] was “strongest adhesion ability” throughout. The cytokeratin expression result with pluripotent stem cells is recorded as “express cytokeratin strongly”. In addition, in the experiment with murine ES cells, the “effect on undifferentiated state / differentiation” value is “act to promote the differentiation”.
